Measured values reported in patent US11154529B2, “Phosphaplatin liquid formulations” (Phosplatin Therapeutics Inc., priority 2016, dated 2021).

Assay: Design of Experiment study on pyrophosphate ion stabilization, stability at 60° C.
Type: physicochemical
Settings: added pyrophosphate ion as little as ~0.25 molar equivalent
Excerpt: Specifically the presence of pyrophosphate results in the rapid disappearance of the (R,R)-pyrodach-2 dimer impurity and the RRT-3.1-3.2 impurity.

O=P1(O)OP(=O)(O)[O][Pt]2([NH][C@@H]3CCCC[C@H]3[NH]2)[O]1 (stereo partly drawn) [(R,R)-pyrodach-2, (R,R)-trans-1,2-cyclohexanediamine-(dihydrogenpyrophosphato)platinum(II)]
overall rate of (R,R)-pyrodach-2 degradation and impurity appearance: dramatic decrease
